Measurements taken from EP4678638A1, “NEW E3 UBIQUITIN LIGASE LIGAND, PROTEIN DEGRADATION AGENT AND USE THEREOF” (priority 2023, dated 2024).
Like-named read-outs stand apart in the source and are kept apart here.

Key:
Format in all cases: cell-based
MM.1S = assay: CCK-8 proliferation, MM.1S; settings: Homo sapiens, MM1.S, read-out: Inhibitory activity (IC50) on tumor cell proliferation, MM1S
Outline: (§1)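 Cells seeded, then after 24 h treated with 10 concentrations (top 10 µM, 5-fold serial dilution) for a line-specific time at 37°C, 5% CO2. Viability read by CCK-8; IC50 fitted from growth-inhibition curves.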

WEE1 = biological target: T1, WEE1 (Homo sapiens, UniProt P30291+Q96SW2); assay: Western blot degradation of WEE1 (hPBMC); settings: Table D16
T1 construct: evaluate the effects of the compounds of the present disclosure on the expression of target proteins in cells; endogenous in cells; host or cells: hPBMC
T1 sequence (P30291 whole entry): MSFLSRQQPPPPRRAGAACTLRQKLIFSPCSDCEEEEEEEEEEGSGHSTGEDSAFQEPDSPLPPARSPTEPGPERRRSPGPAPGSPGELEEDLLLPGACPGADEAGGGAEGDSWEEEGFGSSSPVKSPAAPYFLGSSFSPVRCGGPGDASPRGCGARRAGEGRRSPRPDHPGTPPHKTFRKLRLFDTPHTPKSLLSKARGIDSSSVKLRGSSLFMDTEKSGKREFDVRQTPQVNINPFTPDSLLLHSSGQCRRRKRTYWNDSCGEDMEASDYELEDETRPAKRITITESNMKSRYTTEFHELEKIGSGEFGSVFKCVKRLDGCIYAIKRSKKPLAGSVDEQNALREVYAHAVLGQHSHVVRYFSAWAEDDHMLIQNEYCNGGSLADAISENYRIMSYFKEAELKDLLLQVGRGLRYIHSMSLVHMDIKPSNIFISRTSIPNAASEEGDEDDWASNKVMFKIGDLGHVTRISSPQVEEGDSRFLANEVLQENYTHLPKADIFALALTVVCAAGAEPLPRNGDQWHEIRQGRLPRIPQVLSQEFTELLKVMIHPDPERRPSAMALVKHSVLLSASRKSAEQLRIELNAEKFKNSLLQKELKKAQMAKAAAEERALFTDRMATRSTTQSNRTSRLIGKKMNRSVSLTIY
T1 sequence (Q96SW2 whole entry): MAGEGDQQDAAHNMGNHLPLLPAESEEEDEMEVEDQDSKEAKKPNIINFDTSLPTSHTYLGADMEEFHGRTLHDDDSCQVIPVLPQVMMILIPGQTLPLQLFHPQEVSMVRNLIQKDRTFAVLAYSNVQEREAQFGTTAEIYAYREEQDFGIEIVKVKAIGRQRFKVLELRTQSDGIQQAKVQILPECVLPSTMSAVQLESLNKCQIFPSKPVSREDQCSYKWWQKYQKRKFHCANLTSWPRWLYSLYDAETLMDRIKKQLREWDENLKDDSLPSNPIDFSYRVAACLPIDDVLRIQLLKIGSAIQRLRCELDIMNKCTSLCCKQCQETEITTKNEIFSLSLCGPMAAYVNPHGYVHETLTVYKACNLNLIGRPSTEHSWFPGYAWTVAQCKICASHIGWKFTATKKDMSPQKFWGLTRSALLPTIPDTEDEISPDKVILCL
T1 sequence (Q16531 whole entry partner): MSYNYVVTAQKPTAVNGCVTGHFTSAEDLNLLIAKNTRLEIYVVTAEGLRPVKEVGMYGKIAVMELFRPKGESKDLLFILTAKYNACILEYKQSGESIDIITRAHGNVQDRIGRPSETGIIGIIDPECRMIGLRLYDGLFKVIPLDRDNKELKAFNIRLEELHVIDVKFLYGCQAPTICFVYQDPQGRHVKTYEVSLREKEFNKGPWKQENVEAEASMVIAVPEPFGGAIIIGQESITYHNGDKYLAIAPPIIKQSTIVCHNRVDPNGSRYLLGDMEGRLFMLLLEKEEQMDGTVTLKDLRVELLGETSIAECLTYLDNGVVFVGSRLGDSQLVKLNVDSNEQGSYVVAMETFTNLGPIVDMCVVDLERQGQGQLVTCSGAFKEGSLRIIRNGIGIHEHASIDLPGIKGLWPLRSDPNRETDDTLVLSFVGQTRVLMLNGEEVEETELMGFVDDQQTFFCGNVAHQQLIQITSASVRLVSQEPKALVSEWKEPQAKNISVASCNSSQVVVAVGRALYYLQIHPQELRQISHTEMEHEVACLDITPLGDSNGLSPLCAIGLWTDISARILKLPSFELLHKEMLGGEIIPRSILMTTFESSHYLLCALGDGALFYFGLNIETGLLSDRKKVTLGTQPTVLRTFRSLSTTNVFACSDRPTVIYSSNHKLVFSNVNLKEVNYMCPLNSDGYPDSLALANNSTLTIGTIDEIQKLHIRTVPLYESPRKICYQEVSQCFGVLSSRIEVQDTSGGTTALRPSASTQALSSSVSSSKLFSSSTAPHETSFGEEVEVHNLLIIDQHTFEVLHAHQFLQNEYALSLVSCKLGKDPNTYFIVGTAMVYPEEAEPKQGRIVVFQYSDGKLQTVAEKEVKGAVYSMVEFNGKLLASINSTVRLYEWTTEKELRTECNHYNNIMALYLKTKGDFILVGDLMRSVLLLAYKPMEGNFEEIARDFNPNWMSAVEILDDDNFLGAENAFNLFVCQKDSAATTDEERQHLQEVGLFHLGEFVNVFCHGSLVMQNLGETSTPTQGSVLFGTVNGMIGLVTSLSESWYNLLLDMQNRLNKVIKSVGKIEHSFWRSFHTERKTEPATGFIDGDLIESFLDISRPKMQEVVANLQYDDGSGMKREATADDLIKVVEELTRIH
Outline: (§2)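 Quantification by ImageJ densitometry of Western blot bands: DC50 is the fitted concentration halving band intensity relative to DMSO. Percent remaining uses internal-control normalization, and degradation rate is its complement.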

IKZF1 = biological target: T2, IKZF1 (Homo sapiens, UniProt Q13422+Q96SW2); assay: Western blot degradation of IKZF1 (hPBMC); settings: Table D16
T2 construct: evaluate the effects of the compounds of the present disclosure on the expression of target proteins in cells; endogenous in cells; host or cells: hPBMC
Outline: as §2

IKZF2 = biological target: T3, IKZF2 (Homo sapiens, UniProt Q96SW2+Q9UKS7); assay: Western blot degradation of IKZF2 (hPBMC); settings: Table D16
T3 construct: evaluate the effects of the compounds of the present disclosure on the expression of target proteins in cells; endogenous in cells; host or cells: hPBMC
T3 sequence (Q9UKS7 whole entry): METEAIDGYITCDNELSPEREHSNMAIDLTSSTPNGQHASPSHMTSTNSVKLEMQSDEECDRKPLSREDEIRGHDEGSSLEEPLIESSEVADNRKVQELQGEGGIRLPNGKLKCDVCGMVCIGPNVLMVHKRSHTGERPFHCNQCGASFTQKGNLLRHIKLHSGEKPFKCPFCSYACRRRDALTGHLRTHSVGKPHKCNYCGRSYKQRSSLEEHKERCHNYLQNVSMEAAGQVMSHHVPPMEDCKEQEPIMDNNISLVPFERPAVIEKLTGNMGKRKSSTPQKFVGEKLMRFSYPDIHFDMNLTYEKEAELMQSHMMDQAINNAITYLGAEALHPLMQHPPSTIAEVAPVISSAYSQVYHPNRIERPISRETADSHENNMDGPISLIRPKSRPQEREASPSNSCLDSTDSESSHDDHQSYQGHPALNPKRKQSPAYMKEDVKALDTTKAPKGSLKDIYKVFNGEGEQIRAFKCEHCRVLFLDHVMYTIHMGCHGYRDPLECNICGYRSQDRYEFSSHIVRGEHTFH
T3 sequence (Q96SW2 whole entry): as the sequence (Q96SW2 whole entry) above
T3 sequence (Q16531 whole entry partner): as the sequence (Q16531 whole entry partner) above
Outline: as §2

IKZF3 = biological target: T4, IKZF3 (Homo sapiens, UniProt Q96SW2+Q9UKT9); assay: Western blot degradation of IKZF3 (hPBMC); settings: Table D16
T4 construct: evaluate the effects of the compounds of the present disclosure on the expression of target proteins in cells; endogenous in cells; host or cells: hPBMC
T4 sequence (Q9UKT9 whole entry): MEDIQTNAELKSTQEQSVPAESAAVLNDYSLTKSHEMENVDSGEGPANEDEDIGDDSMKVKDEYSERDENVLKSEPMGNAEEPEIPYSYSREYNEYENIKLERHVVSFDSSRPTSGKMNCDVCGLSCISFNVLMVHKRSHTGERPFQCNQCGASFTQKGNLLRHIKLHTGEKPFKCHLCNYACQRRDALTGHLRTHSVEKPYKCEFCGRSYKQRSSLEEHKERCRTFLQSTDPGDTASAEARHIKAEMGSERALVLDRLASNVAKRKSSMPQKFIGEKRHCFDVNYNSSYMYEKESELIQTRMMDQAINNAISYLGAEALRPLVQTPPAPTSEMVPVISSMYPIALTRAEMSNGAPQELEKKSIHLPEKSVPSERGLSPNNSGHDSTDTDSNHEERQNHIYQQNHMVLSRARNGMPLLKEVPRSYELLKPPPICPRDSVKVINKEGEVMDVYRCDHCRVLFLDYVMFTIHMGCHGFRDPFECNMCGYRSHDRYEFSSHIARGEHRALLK
T4 sequence (Q96SW2 whole entry): as the sequence (Q96SW2 whole entry) above
T4 sequence (Q16531 whole entry partner): as the sequence (Q16531 whole entry partner) above
Outline: as §2

CK1a = biological target: T5, CK1a (Homo sapiens, UniProt P48729+Q96SW2); assay: Western blot degradation of CK1a (hPBMC); settings: Table D16
T5 construct: evaluate the effects of the compounds of the present disclosure on the expression of target proteins in cells; endogenous in cells; host or cells: hPBMC
T5 sequence (P48729 whole entry): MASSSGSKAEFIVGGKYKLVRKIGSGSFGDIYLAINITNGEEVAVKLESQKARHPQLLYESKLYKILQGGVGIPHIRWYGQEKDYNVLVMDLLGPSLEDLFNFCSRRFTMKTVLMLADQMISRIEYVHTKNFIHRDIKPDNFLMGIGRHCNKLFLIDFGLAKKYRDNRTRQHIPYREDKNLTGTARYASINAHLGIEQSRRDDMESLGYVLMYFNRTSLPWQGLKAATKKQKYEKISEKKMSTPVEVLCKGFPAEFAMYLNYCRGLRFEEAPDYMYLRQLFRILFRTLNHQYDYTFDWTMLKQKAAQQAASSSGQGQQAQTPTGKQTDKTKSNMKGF
T5 sequence (Q96SW2 whole entry): as the sequence (Q96SW2 whole entry) above
T5 sequence (Q16531 whole entry partner): as the sequence (Q16531 whole entry partner) above
Outline: as §2

GSPT1 = biological target: T6, GSPT1 (Homo sapiens, UniProt P15170+Q96SW2); assay: Western blot degradation of GSPT1 (hPBMC); settings: Table D16
T6 construct: evaluate the effects of the compounds of the present disclosure on the expression of target proteins in cells; endogenous in cells; host or cells: hPBMC
T6 sequence (P15170 whole entry): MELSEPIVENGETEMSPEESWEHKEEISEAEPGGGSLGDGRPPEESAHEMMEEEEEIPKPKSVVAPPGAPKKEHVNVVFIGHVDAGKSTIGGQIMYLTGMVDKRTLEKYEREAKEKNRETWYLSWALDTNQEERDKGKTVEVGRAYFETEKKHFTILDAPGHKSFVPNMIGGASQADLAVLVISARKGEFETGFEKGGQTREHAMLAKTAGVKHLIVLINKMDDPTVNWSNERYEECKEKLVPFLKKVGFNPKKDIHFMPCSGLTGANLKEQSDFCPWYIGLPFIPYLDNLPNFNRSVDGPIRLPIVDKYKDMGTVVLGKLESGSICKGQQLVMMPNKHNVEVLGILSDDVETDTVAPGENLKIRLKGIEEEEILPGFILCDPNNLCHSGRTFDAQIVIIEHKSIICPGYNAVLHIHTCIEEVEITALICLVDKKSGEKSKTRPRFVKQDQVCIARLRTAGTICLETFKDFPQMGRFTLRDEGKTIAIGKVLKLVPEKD
T6 sequence (Q96SW2 whole entry): as the sequence (Q96SW2 whole entry) above
T6 sequence (Q16531 whole entry partner): as the sequence (Q16531 whole entry partner) above
Outline: as §2

MCF7 = assay: CCK-8 proliferation, MCF7 (MCF-7); settings: Homo sapiens, MCF7; CCK-8; read-out: Inhibitory activity (IC50) on tumor cell proliferation, MCF-7
Outline: as §1

IC50 (MM.1S; CCK-8, 72 hours) [nM]	IC50 (MCF7) [nM]	SMILES	Degradation of substrate protein WEE1 (substrate protein remaining %) (WEE1)	Degradation of substrate protein IKZF1 (substrate protein remaining %) (IKZF1)	Degradation of substrate protein IKZF2 (substrate protein remaining %) (IKZF2)	Degradation of substrate protein IKZF3 (substrate protein remaining %) (IKZF3)	Degradation of substrate protein CKla (substrate protein remaining %) (CK1a)	Degradation of substrate protein GSPT1 (substrate protein remaining %) (GSPT1)	IC50 (MM.1S; 72 h) [nM]
1000 to 5000		O=C1CCN(c2cnc(CCl)c(F)c2)C(=O)N1 [GT-07557, 1-(6-(Chloromethyl)-5-fluoropyridin-3-yl)dihydropyrimidine-2,4(1H,3H)-dione]	A (A is defined as 0% ≤ substrate protein remaining % ≤ 80%)	A (A is defined as 0% ≤ substrate protein remaining % ≤ 80%)	B (B is defined as substrate protein remaining % > 80%)	B (B is defined as substrate protein remaining % > 80%)	A (A is defined as 0% ≤ substrate protein remaining % ≤ 80%)	B (B is defined as substrate protein remaining % > 80%)	
1000 to 5000		O=C1CCC(c2ccc(CO)nn2)C(=O)N1 (centres unmarked) [GT-07636, 3-(6-(Hydroxymethyl)pyridazin-3-yl)piperidine-2,6-dione]	B (B is defined as substrate protein remaining % > 80%)	A (A is defined as 0% ≤ substrate protein remaining % ≤ 80%)	A (A is defined as 0% ≤ substrate protein remaining % ≤ 80%)	A (A is defined as 0% ≤ substrate protein remaining % ≤ 80%)	B (B is defined as substrate protein remaining % > 80%)	A (A is defined as 0% ≤ substrate protein remaining % ≤ 80%)	
	1000 to 5000	O=C1CCC(Nc2ncncc2CO)C(=O)N1 (centres unmarked) [GT-07727, 3-((5-(Hydroxymethyl)pyrimidin-4-yl)amino)piperidine-2,6-dione]	A (A is defined as 0% ≤ substrate protein remaining % ≤ 80%)	A (A is defined as 0% ≤ substrate protein remaining % ≤ 80%)	A (A is defined as 0% ≤ substrate protein remaining % ≤ 80%)	A (A is defined as 0% ≤ substrate protein remaining % ≤ 80%)	B (B is defined as substrate protein remaining % > 80%)	B (B is defined as substrate protein remaining % > 80%)	
	1000 to 5000	O=C1CCC(Nc2ccc(CO)cn2)C(=O)N1 (centres unmarked) [GT-07551, 3-((5-(Hydroxymethyl)pyridin-2-yl)amino)piperidine-2,6-dione]	A (A is defined as 0% ≤ substrate protein remaining % ≤ 80%)	B (B is defined as substrate protein remaining % > 80%)	A (A is defined as 0% ≤ substrate protein remaining % ≤ 80%)	B (B is defined as substrate protein remaining % > 80%)	B (B is defined as substrate protein remaining % > 80%)	B (B is defined as substrate protein remaining % > 80%)	

Further lines, the molecule ahead of its results:

SMILES	IC50 (MM.1S; CCK-8, 72 hours) [nM]	IC50 (MCF7) [nM]	Degradation of substrate protein WEE1 (substrate protein remaining %) (WEE1)	Degradation of substrate protein IKZF1 (substrate protein remaining %) (IKZF1)	Degradation of substrate protein IKZF2 (substrate protein remaining %) (IKZF2)	Degradation of substrate protein IKZF3 (substrate protein remaining %) (IKZF3)	Degradation of substrate protein CKla (substrate protein remaining %) (CK1a)	Degradation of substrate protein GSPT1 (substrate protein remaining %) (GSPT1)	IC50 (MM.1S; 72 h) [nM]
CC(C)(C)[Si](C)(C)OCc1ccc(NC2CCC(=O)NC2=O)nc1 (centres unmarked) [GT-07552, 3-((5-(((tert-Butyldimethylsilyl)oxy)methyl)pyridin-2-yl)amino)piperidine-2,6-dione]			B (B is defined as substrate protein remaining % > 80%)	B (B is defined as substrate protein remaining % > 80%)	A (A is defined as 0% ≤ substrate protein remaining % ≤ 80%)	B (B is defined as substrate protein remaining % > 80%)	B (B is defined as substrate protein remaining % > 80%)	B (B is defined as substrate protein remaining % > 80%)	1000 to 5000
CC(C)(C)[Si](C)(C)OCc1ccc(NC2CCC(=O)NC2=O)cn1 (centres unmarked) [GT-07445, 3-((6-(((tert-Butyldimethylsilyl)oxy)methyl)pyridin-3-yl)amino)piperidine-2,6-dione]			A (A is defined as 0% ≤ substrate protein remaining % ≤ 80%)	A (A is defined as 0% ≤ substrate protein remaining % ≤ 80%)	B (B is defined as substrate protein remaining % > 80%)	B (B is defined as substrate protein remaining % > 80%)	A (A is defined as 0% ≤ substrate protein remaining % ≤ 80%)	A (A is defined as 0% ≤ substrate protein remaining % ≤ 80%)	500 to 1000
O=Cc1cnc(NC2CCC(=O)NC2=O)nc1 (centres unmarked) [GT-07367, 2-((2,6-Dioxopiperidin-3-yl)amino)pyrimidine-5-carbaldehyde]	1000 to 5000		B (B is defined as substrate protein remaining % > 80%)	B (B is defined as substrate protein remaining % > 80%)	B (B is defined as substrate protein remaining % > 80%)	B (B is defined as substrate protein remaining % > 80%)	A (A is defined as 0% ≤ substrate protein remaining % ≤ 80%)	A (A is defined as 0% ≤ substrate protein remaining % ≤ 80%)	
O=C1CCC(Nc2cncc(CO)c2)C(=O)N1 (centres unmarked) [GT-07448, 3-((5-(Hydroxymethyl)pyridin-3-yl)amino)piperidine-2,6-dione]	1000 to 5000		A (A is defined as 0% ≤ substrate protein remaining % ≤ 80%)	A (A is defined as 0% ≤ substrate protein remaining % ≤ 80%)	A (A is defined as 0% ≤ substrate protein remaining % ≤ 80%)	A (A is defined as 0% ≤ substrate protein remaining % ≤ 80%)	A (A is defined as 0% ≤ substrate protein remaining % ≤ 80%)	A (A is defined as 0% ≤ substrate protein remaining % ≤ 80%)	
O=C1CCC(Nc2ccc(CO)nc2)C(=O)N1 (centres unmarked) [GT-07446, 3-((6-(Hydroxymethyl)pyridin-3-yl)amino)piperidine-2,6-dione]		1000 to 5000	A (A is defined as 0% ≤ substrate protein remaining % ≤ 80%)	A (A is defined as 0% ≤ substrate protein remaining % ≤ 80%)	A (A is defined as 0% ≤ substrate protein remaining % ≤ 80%)	A (A is defined as 0% ≤ substrate protein remaining % ≤ 80%)	A (A is defined as 0% ≤ substrate protein remaining % ≤ 80%)	A (A is defined as 0% ≤ substrate protein remaining % ≤ 80%)	
NCc1cncc(N2CCC(=O)NC2=O)c1 [GT-07077, 1-(5-(Aminomethyl)pyridin-3-yl)dihydropyrimidine-2,4(1H,3H)-dione]		1000 to 5000	B (B is defined as substrate protein remaining % > 80%)	B (B is defined as substrate protein remaining % > 80%)	B (B is defined as substrate protein remaining % > 80%)	B (B is defined as substrate protein remaining % > 80%)	B (B is defined as substrate protein remaining % > 80%)	A (A is defined as 0% ≤ substrate protein remaining % ≤ 80%)	
O=Cc1cccnc1NC1CCC(=O)NC1=O (centres unmarked) [GT-07447, 2-((2,6-Dioxopiperidin-3-yl)amino)nicotinaldehyde]		1000 to 5000	A (A is defined as 0% ≤ substrate protein remaining % ≤ 80%)	A (A is defined as 0% ≤ substrate protein remaining % ≤ 80%)	A (A is defined as 0% ≤ substrate protein remaining % ≤ 80%)	A (A is defined as 0% ≤ substrate protein remaining % ≤ 80%)	A (A is defined as 0% ≤ substrate protein remaining % ≤ 80%)	A (A is defined as 0% ≤ substrate protein remaining % ≤ 80%)	
